Common to all, as to assay type: cell-based
Data set [1] deals with J774.1. In words: Inhibition of nitric oxides synthase in mouse J774.1 cells assessed as inhibition of LPS-induced NO release at 100 ug/mL after 48 hrs by Griess assay relative to control. A general note: Nitrite, measured by Griess reagent, commonly stands in for NO production.
Data set [2] relates to J774.1. The experiment in a line: Inhibition of nitric oxides synthase in mouse J774.1 cells assessed as inhibition of LPS-induced NO release at 1 ug/mL after 48 hrs by Griess assay relative to control.
Data set [3] in a line: Cytotoxicity against mouse J774.1 cells assessed as cell viability after 48 hrs by MTT assay. The settings on record: read-out: Activity.

The structures appear in SMILES notation.

As a reminder, the inhibition is the share of the control response that was lost under treatment.

With `COc1cc(/C=C/CO)cc(OC)c1O[C@@H]1O[C@H](CO)[C@@H](O)[C@H](O)[C@H]1O`, in data set [1], the inhibition was 12.3%.
For the molecule `C=C1C(=O)O[C@@H]2/C=C(\C)CC/C=C(\C)CC[C@@H]12` [COSTUNOLIDE], the inhibition in data set [1] came to 94.6%; in data set [2] it was 50.3%. In addition, in data set [3], the viability at 48 h was 92%.
As to `C[C@H]1O[C@H](O[C@@H]2[C@@H](O)[C@H](OCCc3ccc(O)c(O)c3)O[C@H](CO[C@H]3O[C@@H](CO)[C@H](O)[C@@H](O)[C@@H]3O)[C@H]2OC(=O)/C=C/c2ccc(O)c(O)c2)[C@@H](O)[C@@H](O)[C@@H]1O`, the inhibition in data set [1] was found to be 10.4%.
On the same count and under the same terms, with `COc1cc(/C=C/CO)cc(OC)c1O[C@@H]1O[C@H](CO)[C@@H](O[C@@H]2O[C@H](CO)[C@@H](O)[C@H](O)[C@H]2O)[C@H](O)[C@H]1O` the figure was 22.3%.

The values above are taken from ChEMBL document CHEMBL1158298, “Syringin 4-O-beta-glucoside, a new phenylpropanoid glycoside, and costunolide, a nitric oxide synthase inhibitor, from the stem bark of Magnolia sieboldii” (J Nat Prod, 1996).
